Assay results reported in patent US6162417A, “Pyrrolo isoquinolines” (Emory University, priority 1998, dated 2000).
Where two headings read alike, the source gives them in different places.

Tests used:
[1] = target: T1, human serotonin transporter (Homo sapiens, UniProt P31645); assay: Binding site inhibition in HEK-293 cell membranes transfected with human serotonin transporter ([3H]Citalopram)
T1 construct: expressed in transfected cells; host or cells: HEK-293, stably transfected

[2] = Tissue distribution of radioactivity after intravenous administration (Table 6); format: in vivo, Sprague Dawley rats; conditions: rat, i.v., mean (range) of 4 rats; for tissue uptake at 0.5 h: 30 min; for tissue uptake at 1 h: 60 min; for tissue uptake at 2 h: 120 min
Source text: Distribution of Radioactivity in Tissues of Unfasted Male
Sprague Dawley Rats Following Intravenous Administration
of (+)-Trans-1,2,3,5,6,10b-hexahydro-6-
[4-iodophenyl]-pyrrolo[2,1-a]isoquinoline
Mean % Injected Dose/Gram (Range of 4 rats +/SD)

[3] = Regional brain distribution of radioactivity after intravenous administration (Table 4); format: in vivo, Sprague-Dawley rats; conditions: iv, rat, i.v., mean of three rats; for tissue uptake at 0.5 h: 30 min; for tissue uptake at 1 h: 60 min; for tissue uptake at 2 h: 120 min
Source text: (§1) Regional Distribution of Radioactivity in Tissues of Unfasted
(§2) Male Sprague-Dawley Rats Following Intravenous Administration
(§3) iodophenyl)pyrrolo[2,1-a]isoquinoline
(§4) The cerebellum contains a very low density of serotonin transporter sites and is taken as "background" in this analysis of regional uptake.

serotonin transporter = assay: as above; format: in vivo, Sprague-Dawley rats; conditions: rat, i.v.
Source text: as §1, §2, §3, §4

[4] = test system: serotonin transporter; dopamine transporter; assay: Regional brain uptake with and without preblocking by paroxetine or GBR 12909 (Table 5); format: in vivo, Sprague Dawley rats; conditions: rat, 60 min
Description: (§5) Regional Uptake (% dose/gram) and Ratios of
(§6) 95% ee(6S, 10bR)-I-McN in Sprague Dawley Rats
(§7) (n = 4) at 60 Min Following Preblocking
(§8) (5 mg/kg i.v. 15 min prior to radioligand)

[5] = as above; format: in vivo, Sprague Dawley rats; conditions: rat, iv, 60 min
Description: as §5, §6, §7, §8

[6] = HEK-293 cells, human serotonin transporter, vs. [3H]Citalopram, read-out: 5-HT Ki
[7] = blood, read-out: Blood, mean % injected dose/gram
[8] = brain, read-out: Brain, mean % injected dose/gram
[9] = heart, read-out: Heart, mean % injected dose/gram
[10] = kidney, read-out: Kidney, mean % injected dose/gram
[11] = liver, read-out: Liver, mean % injected dose/gram
[12] = lung, read-out: Lung, mean % injected dose/gram
[13] = muscle, read-out: Muscle, mean % injected dose/gram
[14] = spleen, read-out: Spleen, mean % injected dose/gram
[15] = thyroid, read-out: Thyroid, mean % injected dose/gram
[16] = cerebellum, read-out: Cerebellum, mean % injected dose/gram
[17] = cortex, read-out: Cortex, mean % injected dose/gram
[18] = hypothalamus, read-out: Hypothalamus, mean % injected dose/gram
[19] = prefrontal cortex, read-out: Prefrontal Cortex, mean % injected dose/gram
[20] = striatum, read-out: Striatum, mean % injected dose/gram
[21] = dopamine blocker GBR 12909 5 mg/kg i.v. 15 min prior
[22] = serotonin blocker paroxetine 5 mg/kg i.v. 15 min prior

T1 sequence (P31645 whole entry): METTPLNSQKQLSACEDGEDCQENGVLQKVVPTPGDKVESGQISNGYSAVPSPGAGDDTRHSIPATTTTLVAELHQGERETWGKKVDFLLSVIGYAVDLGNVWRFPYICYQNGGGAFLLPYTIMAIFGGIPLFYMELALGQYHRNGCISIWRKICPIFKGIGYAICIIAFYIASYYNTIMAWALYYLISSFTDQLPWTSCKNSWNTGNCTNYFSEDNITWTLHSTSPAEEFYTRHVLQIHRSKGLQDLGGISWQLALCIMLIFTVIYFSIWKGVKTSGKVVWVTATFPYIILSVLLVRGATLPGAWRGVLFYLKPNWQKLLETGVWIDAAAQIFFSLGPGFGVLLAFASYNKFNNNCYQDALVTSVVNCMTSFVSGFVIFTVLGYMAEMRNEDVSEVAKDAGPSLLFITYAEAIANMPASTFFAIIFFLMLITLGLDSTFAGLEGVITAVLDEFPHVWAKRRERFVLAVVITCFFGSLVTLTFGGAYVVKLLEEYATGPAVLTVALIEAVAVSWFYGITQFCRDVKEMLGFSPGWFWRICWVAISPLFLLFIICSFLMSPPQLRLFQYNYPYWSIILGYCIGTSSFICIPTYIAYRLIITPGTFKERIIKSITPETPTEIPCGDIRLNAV

Q: For `FCCSc1ccc([C@@H]2CN3CCC[C@@H]3c3ccccc32)cc1` (relative stereo) [racemic SCH2 CH2 F], which Ki [1, 6] is on record?
A: 5.7 nM

Q: For `FCCSc1ccc([C@@H]2CN3CCC[C@@H]3c3ccccc32)cc1` (single isomer, unassigned) [95% ee (+) SCH2 CH2 F], which Ki [1, 6] is on record?
A: 2.6 nM

Q: What does the source list for `Ic1ccc([C@@H]2CN3CCC[C@@H]3c3ccccc32)cc1` [(+)-Trans-1,2,3,5,6,10b-hexahydro-6-[4-iodophenyl]-pyrrolo[2,1-a]isoquinoline]?
A: tissue uptake at 0.5 h [2, 7]: 0.24 %ID/g; tissue uptake at 1 h [2, 7]: 0.3 %ID/g; tissue uptake at 2 h [2, 7]: 0.21 %ID/g; tissue uptake at 0.5 h [2, 8]: 0.85 %ID/g; tissue uptake at 1 h [2, 8]: 0.7 %ID/g; tissue uptake at 2 h [2, 8]: 0.43 %ID/g; tissue uptake at 0.5 h [2, 9]: 0.55 %ID/g; tissue uptake at 1 h [2, 9]: 0.51 %ID/g; tissue uptake at 2 h [2, 9]: 0.47 %ID/g; tissue uptake at 0.5 h [2, 10]: 0.84 %ID/g; tissue uptake at 1 h [2, 10]: 0.66 %ID/g; tissue uptake at 2 h [2, 10]: 0.79 %ID/g; tissue uptake at 0.5 h [2, 11]: 1.62 %ID/g; tissue uptake at 1 h [2, 11]: 1.26 %ID/g; tissue uptake at 2 h [2, 11]: 1.18 %ID/g; tissue uptake at 0.5 h [2, 12]: 1.53 %ID/g; tissue uptake at 1 h [2, 12]: 1.28 %ID/g; tissue uptake at 2 h [2, 12]: 0.92 %ID/g; tissue uptake at 0.5 h [2, 13]: 0.27 %ID/g; tissue uptake at 1 h [2, 13]: 0.26 %ID/g; tissue uptake at 2 h [2, 13]: 0.27 %ID/g; tissue uptake at 0.5 h [2, 14]: 1 %ID/g; tissue uptake at 1 h [2, 14]: 0.74 %ID/g; tissue uptake at 2 h [2, 14]: 0.54 %ID/g; tissue uptake at 0.5 h [2, 15]: 1.07 %ID/g; tissue uptake at 1 h [2, 15]: 1.5 %ID/g; tissue uptake at 2 h [2, 15]: 1.04 %ID/g

Q: Which tissue uptake at 5 min [3, 16] does the source give for `[123I]c1ccc([C@@H]2CN3CCC[C@@H]3c3ccccc32)cc1` [(+)-[^123 I]6, (+)-(6S, 10bR)-1,2,3,5,6,10b-hexahydro-6-(4'-[^123 I]iodophenyl)pyrrolo[2,1-a]-isoquinoline] here?
A: 1.23 %ID/g

Q: And the tissue uptake at 0.5 h [3, 16]?
A: 0.78 %ID/g

Q: And the tissue uptake at 1 h [3, 16]?
A: 0.58 %ID/g

Q: What about the tissue uptake at 2 h [3, 16] of the same molecule?
A: 0.39 %ID/g

Q: And the tissue uptake at 5 min [3, 17]?
A: 2.06 %ID/g

Q: What about the tissue uptake at 0.5 h [3, 17] of the same molecule?
A: 1.6 %ID/g

Q: What about the tissue uptake at 1 h [3, 17] of the same molecule?
A: 0.89 %ID/g

Q: What about the tissue uptake at 2 h [3, 17] of the same molecule?
A: 0.74 %ID/g

Q: And the tissue uptake at 5 min [3, 18]?
A: 3.69 %ID/g

Q: And the tissue uptake at 0.5 h [3, 18]?
A: 3.59 %ID/g

Q: What about the tissue uptake at 1 h [3, 18] of the same molecule?
A: 3.73 %ID/g

Q: And the tissue uptake at 2 h [3, 18]?
A: 2.85 %ID/g

Q: What about the tissue uptake at 5 min [3, 19] of the same molecule?
A: 5 %ID/g

Q: What about the tissue uptake at 0.5 h [3, 19] of the same molecule?
A: 3.72 %ID/g

Q: What about the tissue uptake at 1 h [3, 19] of the same molecule?
A: 3.13 %ID/g

Q: What about the tissue uptake at 2 h [3, 19] of the same molecule?
A: 2.25 %ID/g

Q: And the tissue uptake at 5 min [3, 20]?
A: 3.43 %ID/g

Q: What about the tissue uptake at 0.5 h [3, 20] of the same molecule?
A: 2.46 %ID/g

Q: What about the tissue uptake at 1 h [3, 20] of the same molecule?
A: 2.28 %ID/g

Q: And the tissue uptake at 2 h [3, 20]?
A: 2.06 %ID/g

Q: What about the “accumulation in brain regions” value (serotonin transporter) of the same molecule?
A: greatest accumulation in brain regions rich in serotoninergic neurons

Q: What about the Cortex/Cereb ratio (serotonin transporter; 5 min) of the same molecule?
A: 1.7

Q: And the Hypothal/Cereb ratio (serotonin transporter; 5 min)?
A: 3.0

Q: What about the PrefCx/Cereb ratio (serotonin transporter; 5 min) of the same molecule?
A: 4.1

Q: What about the Striatum/Cereb ratio (serotonin transporter; 5 min) of the same molecule?
A: 2.9

Q: And the Cortex/Cereb ratio (serotonin transporter; 30 min)?
A: 2.1

Q: And the Hypothal/Cereb ratio (serotonin transporter; 30 min)?
A: 4.6

Q: And the PrefCx/Cereb ratio (serotonin transporter; 30 min)?
A: 4.8

Q: What about the Striatum/Cereb ratio (serotonin transporter; 30 min) of the same molecule?
A: 3.2

Q: And the Cortex/Cereb ratio (serotonin transporter; 60 min)?
A: 1.6

Q: What about the Hypothal/Cereb ratio (serotonin transporter; 60 min) of the same molecule?
A: 6.5

Q: And the PrefCx/Cereb ratio (serotonin transporter; 60 min)?
A: 5.4

Q: What about the Striatum/Cereb ratio (serotonin transporter; 60 min) of the same molecule?
A: 4.0

Q: What about the Cortex/Cereb ratio (serotonin transporter; 120 min) of the same molecule?
A: 1.9

Q: And the Hypothal/Cereb ratio (serotonin transporter; 120 min)?
A: 7.3

Q: And the PrefCx/Cereb ratio (serotonin transporter; 120 min)?
A: 5.8

Q: What about the Striatum/Cereb ratio (serotonin transporter; 120 min) of the same molecule?
A: 5.3

Q: For `C=Cc1ccc([C@@H]2CN3CCC[C@@H]3c3ccccc32)cc1` (relative stereo) [racemic CH=CH2], which Ki [1] is on record?
A: 3.7 nM

Q: Which Cortex/Cereb ratio [4, 21] does the source give for `[123I]c1ccc([C@@H]2CN3CCC[C@@H]3c3ccccc32)cc1` [95% ee(6S, 10bR)-I-McN, [^123 I](+)-Trans-1,2,3,5,6,10b-hexaydro-6-[4-iodophenyl]-pyrrolo[2,1-a]isoquinoline] here?
A: 3.82

Q: What about the Hypthal/Cereb ratio [4, 21] of the same molecule?
A: 6.6

Q: And the PrefCx/Cereb ratio [4, 21]?
A: 5.1

Q: And the Striatum/Cereb ratio [4, 21]?
A: 2.47

Q: What about the Cortex/Cereb ratio ([4]; no blocker) of the same molecule?
A: 4.08

Q: What about the Hypthal/Cereb ratio ([4]; no blocker) of the same molecule?
A: 8.15

Q: And the PrefCx/Cereb ratio ([4]; no blocker)?
A: 5.0

Q: What about the Striatum/Cereb ratio ([4]; no blocker) of the same molecule?
A: 4.8

Q: And the Cortex/Cereb ratio [4, 22]?
A: 4.18

Q: And the Hypthal/Cereb ratio [4, 22]?
A: 4.65

Q: What about the PrefCx/Cereb ratio [4, 22] of the same molecule?
A: 4.6

Q: What about the Striatum/Cereb ratio [4, 22] of the same molecule?
A: 3.2

Q: And the tissue uptake at 1 h ([5]; cerebellum, 5 mg/kg, dopamine blocker GBR 12909 5 mg/kg i.v. 15 min prior, read-out: Cerebellum uptake)?
A: 0.55 %ID/g

Q: And the tissue uptake at 1 h ([5]; cerebellum, no blocker, read-out: Cerebellum uptake)?
A: 0.46 %ID/g

Q: And the tissue uptake at 1 h ([5]; cerebellum, serotonin blocker paroxetine 5 mg/kg i.v. 15 min prior, read-out: Cerebellum uptake)?
A: 0.43 %ID/g

Q: And the tissue uptake at 1 h ([5]; cortex, 5 mg/kg, dopamine blocker GBR 12909 5 mg/kg i.v. 15 min prior, read-out: Cortex uptake)?
A: 2.1 %ID/g

Q: What about the tissue uptake at 1 h ([5]; cortex, no blocker, read-out: Cortex uptake) of the same molecule?
A: 1.88 %ID/g

Q: What about the tissue uptake at 1 h ([5]; cortex, serotonin blocker paroxetine 5 mg/kg i.v. 15 min prior, read-out: Cortex uptake) of the same molecule?
A: 1.8 %ID/g

Q: What about the tissue uptake at 1 h ([5]; hypothalamus, 5 mg/kg, dopamine blocker GBR 12909 5 mg/kg i.v. 15 min prior, read-out: Hypothalamus uptake) of the same molecule?
A: 3.62 %ID/g

Q: What about the tissue uptake at 1 h ([5]; hypothalamus, no blocker, read-out: Hypothalamus uptake) of the same molecule?
A: 3.75 %ID/g

Q: What about the tissue uptake at 1 h ([5]; hypothalamus, serotonin blocker paroxetine 5 mg/kg i.v. 15 min prior, read-out: Hypothalamus uptake) of the same molecule?
A: 2 %ID/g

Q: And the tissue uptake at 1 h ([5]; prefrontal cortex, 5 mg/kg, dopamine blocker GBR 12909 5 mg/kg i.v. 15 min prior, read-out: Prefrontal Cortex uptake)?
A: 2.8 %ID/g

Q: And the tissue uptake at 1 h ([5]; prefrontal cortex, no blocker, read-out: Prefrontal Cortex uptake)?
A: 2.3 %ID/g

Q: What about the tissue uptake at 1 h ([5]; prefrontal cortex, serotonin blocker paroxetine 5 mg/kg i.v. 15 min prior, read-out: Prefrontal Cortex uptake) of the same molecule?
A: 1.98 %ID/g

Q: What about the tissue uptake at 1 h ([5]; striatum, 5 mg/kg, dopamine blocker GBR 12909 5 mg/kg i.v. 15 min prior, read-out: Striatum uptake) of the same molecule?
A: 1.36 %ID/g

Q: What about the tissue uptake at 1 h ([5]; striatum, no blocker, read-out: Striatum uptake) of the same molecule?
A: 2.21 %ID/g

Q: And the tissue uptake at 1 h ([5]; striatum, serotonin blocker paroxetine 5 mg/kg i.v. 15 min prior, read-out: Striatum uptake)?
A: 1.39 %ID/g

Q: For `FCCSc1ccc([C@@H]2CN3CCC[C@@H]3c3ccccc32)cc1` (single isomer, unassigned) [95% ee (-) SCH2 CH2 F], which Ki [1, 6] is on record?
A: 6.4 nM

Q: Which Ki [1, 6] does the source give for `FCCc1ccc([C@@H]2CN3CCC[C@@H]3c3ccccc32)cc1` (relative stereo) [racemic CH2 CH2 F] here?
A: 13 nM
